Here are results for 20 compounds from patent US5807688A (priority 1995, dated 1998).

Data set [1] has as its system monoclonal antibody EA11-D7. Type of data set: binding, mouse. The note with it: read-out: I50.
In data set [2] the target is monoclonal antibody 6D9, raised to phosphonate haptens (2.53) and (2.54). The note with it: cited from earlier work.
The test system of data set [3] is antibody NPN43C9, elicited to phosphonamidate hapten (9.11). More on the design: kcat/Km: unit not given here. The note with it: cited from earlier work; for Kd: read-out: Kd or Ki.
Data set [4] concerns monoclonal antibody DG10-8G7 (IgG1), Appendix line 4, elicited to TSA (7.4). Type of data set: binding, mouse. The note with it: inhibition elisa; read-out: aK (ELISA). Background: In an ELISA, binding on a coated surface is turned into a signal by an enzyme label.
In data set [5] the test system is monoclonal antibody AC7-4A10 (IgG1), Appendix line 8, elicited to TSA (7.4). Type of data set: binding, mouse. The note with it: inhibition elisa; read-out: aK (ELISA) (converted).
The subject of data set [6] is monoclonal antibody CC11-4B4 (IgG1), Appendix line 1, elicited to TSA (7.4). The format is binding, mouse. The note with it: inhibition elisa; read-out: aK (ELISA) (converted).
In data set [7] the test system is monoclonal antibody AB9-16H6 (IgG1), Appendix line 3, elicited to TSA (7.4). The format is binding, mouse. The note with it: inhibition elisa; read-out: aK (ELISA) (converted).
For data set [8], the system named is monoclonal antibody 49.AG.659.12. The note with it: cited from earlier work.
Data set [9] has as its system catalytic monoclonal antibody DF8-D5 (IgG1), elicited to phosphonamidate ester hapten (7.2), hybridoma ECACC 96042612. Type of data set: biochemical, mouse. The note with it: for Km / kcat / kcat/Km / kcat/kun: pH 6.5.
In data set [10] the target is monoclonal antibody CF6 (IgG1), Appendix line 13, elicited to TSA (7.2). The format is binding, mouse.
Data set [11] concerns monoclonal antibody EA11-D7 (IgG1), Appendix line 32, elicited to TSA (7.2). Type of data set: binding, mouse.
The subject of data set [12] is monoclonal antibody CF7 (IgG2a), Appendix line 14, elicited to TSA (7.2). The format is binding, mouse.
For data set [13], the system named is LoVo cells.
In data set [14] the test system is JAR human choriocarcinoma cell line. The settings on record: cited from earlier work.
For data set [15] the following is noted: mouse, in vivo, ip, 0.5 h; cited from earlier work.
Data set [16] concerns the target carboxypeptidase G2 (CPG2) (Pseudomonas sp., UniProt P06621). The settings on record: cited from earlier work.
The subject of data set [17] is chorismate mutase (EC 5.4.99.5), E. coli enzyme. The note with it: cited from earlier work.

Several values for one entry are separate records, joined by “and”; a condition that tells them apart may be missing. Identical values can stand only once.

carboxypeptidase G2 (CPG2), sequence (P06621 23-415): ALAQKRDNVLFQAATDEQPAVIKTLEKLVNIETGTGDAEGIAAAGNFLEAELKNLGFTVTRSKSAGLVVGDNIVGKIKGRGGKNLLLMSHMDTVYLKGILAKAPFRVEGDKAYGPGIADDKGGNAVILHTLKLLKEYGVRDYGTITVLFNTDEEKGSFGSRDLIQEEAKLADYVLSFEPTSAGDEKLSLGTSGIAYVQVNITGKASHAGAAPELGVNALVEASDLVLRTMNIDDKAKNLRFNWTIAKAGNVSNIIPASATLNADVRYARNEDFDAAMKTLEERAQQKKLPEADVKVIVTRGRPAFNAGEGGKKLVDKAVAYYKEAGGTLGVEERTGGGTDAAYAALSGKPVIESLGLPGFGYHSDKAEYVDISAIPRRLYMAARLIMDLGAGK

In the case of `CCOP(=O)(O)Cc1ccc([N+](=O)[O-])cc1` [9.8], the IC50 in [1] was 30 nM.

Turning to `O=C(N[C@H](CO)[C@H](OP(=O)(O)Cc1ccc(NC(=O)C(F)(F)F)cc1)c1ccc([N+](=O)[O-])cc1)C(Cl)Cl` [2.54], the Ki (in general, the dissociation constant of the complex between target and ligand, obtained from inhibition or displacement) in data set [2] was 60 nM.

`O=C(Cc1ccccc1)Oc1ccc([N+](=O)[O-])cc1` [NO2]: in data set [3], the Michaelis-Menten constant (Km) (in general, the concentration of substrate that gives half-maximal velocity) is 53 µM; the kcat (commonly the maximal rate divided by the concentration of active sites) was “ca. 25 s^-1”; the kcat/Km result is listed as “ca. 470”; the Kd – broadly, the concentration at which binding is half-saturated – was 1 µM.

Take `O=C(O)CCCC(=O)Nc1ccc(CP(=O)(O)Nc2cc(C(=O)O)cc(C(=O)O)c2)cc1` [7.7, N-[(3,5-Dicarboxy)phenyl]-P-[N-(4'-carboxybutyroyl)-4-aminophenyl-methyl]phosphonamidic acid]: the IC50 in data set [4] was 10 nM; in [5], 0.455 nM; in data set [6], 76.9 nM; in [7] it was 833 nM.

Regarding `CC(C)[C@@H](N)C(=O)OC[C@H]1O[C@@H](n2cc(F)c(=O)[nH]c2=O)C[C@@H]1O` [9.4], in [8], the Km is 215 µM and 218 µM; the turnover number (kcat) was 0.03 min⁻¹.

Turning to `O=C(Nc1cc(C(=O)O)cc(C(=O)O)c1)Oc1ccc([N+](=O)[O-])cc1` [9.9, 4-nitrophenyl N-(3,5-dicarboxyphenyl)carbamate], in [9], the Km stood at 120 µM, the kcat was 18 min⁻¹, the kcat/Km was 0.15 E6 and the kcat/kun amounted to 300.

Take `O=C(Cc1ccccc1)Oc1ccc(Cl)cc1` [Cl]: in data set [3], the Km is 720 µM, the catalytic constant (kcat) was 1.7 ± 0.2 s⁻¹, the kcat/Km is reported as 0.049 and the Kd was 180 ± 40 µM.

In the case of `CCOP(=O)(Cc1ccc(N)cc1)Nc1cc(C(=O)O)cc(C(=O)O)c1` (stereo not drawn) [7.37, Ethyl N-[(3,5-dicarboxy)phenyl]-P-(4-aminophenylmethyl)phosphonamidate], in data set [10], the “Ka (BIAcore)” value amounted to 2.19e+08 M⁻¹. In [10] (biacore), this compound showed a ka of 56600 M⁻¹ s⁻¹ and a kd of 0.000258 s⁻¹. The “kd, mean” value in [11] (biacore) is 2.54e-05 s⁻¹. For the same compound, in [12], the “Ka (BIAcore)” value is “no binding”.

With `O=C(Nc1cc(C(=O)O)cc(C(=O)O)c1)Oc1ccc(N(CCCl)CCCl)cc1` [9.2], the “cytotoxicity of the prodrug alone” value in [13] is recorded as “significant amount of background cytotoxicity”.

For the compound `CS(=O)(=O)OCCN(CCCl)c1ccc(C(=O)O)cc1` [3.16], the IC50 in data set [14] was 220 ± 10 µM.

Turning to `O=C(Nc1cc(C(=O)O)cc(C(=O)O)c1)Oc1ccc(Br)cc1` [9.12, 4-bromophenyl N-(3,5-dicarboxyphenyl)carbamate], in data set [9], the Km worked out at 80 µM, the kcat is 6 min⁻¹, the kcat/Km is recorded as 0.075 E6 and the kcat/kun is 1 E5.

In the case of `Cc1ccc(OC(=O)Cc2ccccc2)cc1` [Me], in data set [3], the Km was roughly 3000 µM, the turnover number (kcat) is 0.15 ± 0.03 s⁻¹ and the kcat/Km is 1.01.

Regarding `O=C(O)CC[C@H](NC(=O)c1ccc(N(CCCl)CCCl)cc1)C(=O)O` [3.4, para-[bis(2-chloroethyl)amino]benzoyl-Lglutamic acid], in data set [15], the “mean concentration, Gut” value was 12.3; the “mean concentration, Kidney” value was 2.9; the “mean concentration, Liver” value is 22.0; the “mean concentration, Lung” value is recorded as 0.2. For the same compound, the “mean concentration, Tumour” value in data set [15] is less than 0.05. Further, the Km in [16] is 4.9 µM.

For `C=C(O[C@@H]1C=C(C(=O)O)C=C[C@H]1O)C(=O)O` [chorismate, (-)-Chorismic acid], the Michaelis constant (Km) in data set [17] was 15 µM.

Regarding `CC(=O)c1ccc(OC(=O)Cc2ccccc2)cc1` [CH3 CO], in [3], the Km was roughly 3000 µM, the kcat result is “ca. 0.87 s^-1” and the kcat/Km entry is listed as “ca. 0.282”.

As to `O=C(Nc1cc(C(=O)O)cc(C(=O)O)c1)Oc1ccc(F)cc1` [9.13, 4-Fluorophenyl N-[(3,5-dicarboxy)phenyl]carbamate], in [9], the maximal velocity (Vmax) – broadly, the top rate of the reaction or transport when substrate is in excess – is 1.1 µM/min; the Km stood at 41 µM; the kcat was 7.2 min⁻¹; the kcat/Km was 0.17 E6. Also, the kcat/kun in [9] is given as 4 E5.

With `O=Cc1ccc(OC(=O)Cc2ccccc2)cc1` [CHO], in data set [3], the Km is 250 µM, the kcat was 1.0 ± 0.1 s⁻¹, the kcat/Km was 4.1 and the Kd was 90 ± 10 µM.

`O=C(Cc1ccc(NC(=O)C(F)(F)F)cc1)O[C@H](c1ccc([N+](=O)[O-])cc1)[C@@H](CO)NC(=O)C(Cl)Cl` [2.56]: the “rate enhancement, kcat/kuncat” value in data set [2] is 1.8×10^3.

Regarding `CCOP(=O)(Cc1ccc(NC(=O)CCCC(=O)O)cc1)Nc1cc(C(=O)O)cc(C(=O)O)c1` (stereo not drawn) [7.6, Ethyl N-[(3,5-dicarboxy)phenyl]-P-[N-(4'-carboxybutyroyl)-4-aminophenylmethyl]phosphonamidate], in [9], the inhibition constant Ki is 25 nM and 40 nM. The compound also yielded a dissociation constant (Kd) in data set [11] of less than 4 nM.

With `COc1ccc(OC(=O)Nc2cc(C(=O)O)cc(C(=O)O)c2)cc1` [9.14, 4-methoxyphenyl N-(3,5-dicarboxyphenyl)carbamate], in [9], the Km is 58 µM, the turnover number (kcat) was 4.9 min⁻¹, the kcat/Km is reported as 0.08 E6 and the kcat/kun is 1.2 E6.
